Laboratory results reported in PMC9105102, “Development and Biochemical Characterization of Self-Immolative Linker Containing GnRH-III-Drug Conjugates” (International Journal of Molecular Sciences, 2022).

Assays:
[1] = Degradation of drug conjugates in presence of rat liver lysosomal homogenate (LC-MS); format: in vitro ADME; conditions: pH 5, 37 °C; for release of free Dau by lysosomal enzymes: up to 24 h
Experimental: The preparation of the rat liver lysosomal homogenate was carried out as recently reported. A Qubit Protein Assay Kit (Thermo Fischer Scientific, Waltham, MA, USA) was used to examine the concentration of the lysosomal proteins.
Initially, a stock solution of the GnRH-III-Dau conjugates in water (5 µg/µL) was prepared. For the degradation reaction, the conjugates and the lysosomal homogenate were diluted together in 0.2 M NaOAc buffer (pH 5) to a concentration of 0.25 µg/µL each. These mixtures were kept at 37 °C and at distinct time points (5 min, 1 h, 2 h, 4 h, 8 h and 24 h), 15 µL of each sample were quenched with 2 µL acetic acid and analyzed by LC-MS (System I).
The GnRH-III-PTX conjugates were dissolved in DMSO to a concentration of 10 mM. The reaction was carried out in 0.2 M NaOAc buffer (pH 5) with 10 µM conjugate and 0.025 µg/mL lysosomal homogenate. The reaction mixtures were incubated at 37 °C and aliquots of 60 μL were taken at 5 min, 1 h, 2 h, 4 h, 8 h and 24 h and quenched with 5 μL of acetic acid. The analysis of the samples was performed by LC–MS (System-II).

[2] = Solubility in acidic aqueous buffer (remark); format: physicochemical; conditions: compared with the ΔHis-D-Tic compounds
[3] = target: T1, GnRH-R (membranes of human prostate cancer specimens) (Homo sapiens, UniProt P30968); assay: Radioligand competition assay, displacement of [125I]-GnRH-I-[6D-Trp] (triptorelin), human prostate cancer membranes; conditions: mean ± SE of two to three determinations, read-out: IC50 Prostate Cancer, competitive inhibition of [125I][6D-Trp]-GnRH-I binding
T1 construct: GnRH-Rs expressed on human pituitary and human prostate cancer cells; from tissue; host or cells: human prostate cancer specimens from patients (surgery); membrane homogenate
T1 sequence (P30968 1-328): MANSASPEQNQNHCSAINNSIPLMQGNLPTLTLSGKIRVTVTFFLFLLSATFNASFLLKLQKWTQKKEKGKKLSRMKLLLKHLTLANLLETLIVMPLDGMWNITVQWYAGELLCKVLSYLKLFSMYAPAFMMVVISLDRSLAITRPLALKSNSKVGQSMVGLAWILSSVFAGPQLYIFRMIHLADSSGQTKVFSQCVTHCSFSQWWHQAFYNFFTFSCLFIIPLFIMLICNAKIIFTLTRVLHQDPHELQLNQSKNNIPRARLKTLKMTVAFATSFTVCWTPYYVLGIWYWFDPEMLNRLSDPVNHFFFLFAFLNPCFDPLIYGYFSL
Experimental: (§1) A ligand competition assay with [^125I]-GnRH-I-[^6D-Trp] as radioligand was performed to examine the binding affinity of the GnRH-III-drug conjugates to GnRH-Rs expressed on human pituitary and human prostate cancer cells. Human prostate cancer cells were derived from patients at the time of initial surgical treatment, while tissue samples from normal human pituitary (anterior lobe) were obtained by autopsy. All subjects were informed and gave their consent for inclusion before they participated in the study. The preparation of the cell membranes was carried out according to the literature. The chloramines-T method was used to prepare radioiodinated GnRH-I agonist triptorelin which was purified by RP-HPLC [10, 38, 39, 47]. The displacement of [^125I]-GnRH-I-[^6D-Trp] was studied in an in vitro ligand competition assay to determine the binding affinities of the non-radio-labeled GnRH-III bioconjugates to GnRH-RI [10, 11, 38, 39]. Membrane homogenates containing […] protein were incubated in duplicate or triplicate with 60–80,000 cpm [^125I]-GnRH-I-[^6D-Trp] and rising concentration (1 pM—1 µM) of nonradioactive bioconjugates as competitors in a total volume of […] binding buffer. Protein concentration was determined by the method of Bradford using a Bio-Rad protein assay kit (Bio-Rad Laboratories, Hercules, CA, USA). The LIGAND-PC computerized curve-fitting program of Munson and Rodbard was used to determine the receptor binding characteristics and IC50 values.

[4] = tested on: A2780 human ovarian cancer cells; assay: cells; format: cell-based; conditions: A2780 cells; treatment 24 h (Dau conjugates) or 6 h (PTX compounds), viability at 72 h; mean ± SE of two to three determinations; read-out: A2780 IC50
Experimental: (§2) For cultivation of A2780 human ovarian and Panc-1 human pancreatic cancer cells, RPMI-1640 medium with 10% FBS, L-glutamine and 1% Penicillin-Streptomycin were used. Cells were cultured in appropriate plastic flasks at 37 °C (humidified atmosphere, 5% CO2/95% air).
(§3) A set-up of 96-well plates was used to study the in vitro antiproliferative activity. Therefore, 5 × 10^3 cells in 100 µL complete medium were seeded to each well. After 24 h, complete medium was removed and cells were treated with 200 µL bioconjugate solution in serum-free medium (concentration range 0.0032–50 µM, control wells were treated with serum-free medium). Medium was taken out after 6 h treatment (PTX conjugates) or 24 h (Dau conjugates), replaced by complete medium and incubation was continued. To determine the cell viability, medium was removed after 72 h and 100 µL resazurin solution [45] (10% Tox-8 in FBS-free medium) was added to each well, followed by additional incubation of 2–3 h. A Tecan infinite 200 pro microplate reader (Tecan Group Ltd., Zürich, Switzerland) was used for fluorescence detection (λEx = 560 and λEm = 590 nm). Experiments were performed at least twice, using three parallels per concentration. The cell viability (and IC50 values) was calculated with GraphPad Prism using a nonlinear regression (sigmoidal dose-response).

[5] = tested on: Panc-1 human pancreatic cancer cells; assay: cells; format: cell-based; conditions: Panc-1 cells; treatment 24 h (Dau conjugates) or 6 h (PTX compounds), viability at 72 h; mean ± SE of two to three determinations; read-out: Panc-1 IC50
Experimental: as §2, §3

[6] = target: T2, GnRH-R (membranes of human pituitary) (Homo sapiens, UniProt P30968); assay: Radioligand competition assay, displacement of [125I]-GnRH-I-[6D-Trp] (triptorelin), human pituitary membranes; format: binding
T2 construct: GnRH-Rs expressed on human pituitary and human prostate cancer cells; from tissue; host or cells: normal human pituitary (anterior lobe), autopsy; membrane homogenate
T2 sequence (P30968 1-328): T1 sequence (P30968 1-328)
Experimental: as §1

SMILES	release of free Dau by lysosomal enzymes ([1]; LC-MS)	solubility in acidic aqueous buffer [2]	IC50 [3]	IC50 [4]	IC50 [5]	IC50 [6]	release of the smallest Dau-containing metabolite H-Lys(Dau-glutaryl)-OH ([1]; LC-MS)	detection of the diamine-PTX fragment ([1]; even after 24 h of incubation)	detection of the diamine-PTX fragment ([1]; after 5 min of incubation)	release of the free PTX ([1]; within 24 h)
CCCC(=O)NCCCC[C@H](NC(=O)[C@H](Cc1c[nH]c2ccccc12)NC(=O)[C@H](Cc1c[nH]cn1)NC(=O)[C@@H]1CCC(=O)N1)C(=O)N[C@@H](Cc1c[nH]cn1)C(=O)N[C@@H](CC(=O)O)C(=O)N[C@@H](Cc1c[nH]c2ccccc12)C(=O)N[C@@H](CCCCNC(=O)CCCC(=O)N[C@H](C(=O)N[C@@H](C)C(=O)Nc1ccc(COC(=O)N[C@H]2C[C@H](O[C@H]3C[C@](O)(C(C)=O)Cc4c(O)c5c(c(O)c43)C(=O)c3c(OC)cccc3C5=O)O[C@@H](C)[C@H]2O)cc1)C(C)C)C(=O)N1CCC[C@H]1C(=O)NCC(N)=O [compound 12]	release of free Dau and the formation of several peptide fragments could be confirmed	better solubility	15.5 ± 0.83 nM	7480 ± 660 nM	56200 ± 17300 nM	17 ± 1.04 nM	–	–	–	–
CCCC(=O)NCCCC[C@H](NC(=O)[C@H](Cc1c[nH]c2ccccc12)NC(=O)[C@H](Cc1c[nH]cn1)NC(=O)[C@@H]1CCC(=O)N1)C(=O)N[C@@H](Cc1c[nH]cn1)C(=O)N[C@@H](CC(=O)O)C(=O)N[C@@H](Cc1c[nH]c2ccccc12)C(=O)N[C@@H](CCCCNC(=O)CCCC(=O)N[C@H](C(=O)N[C@@H](CCCNC(N)=O)C(=O)Nc1ccc(COC(=O)N[C@H]2C[C@H](O[C@H]3C[C@](O)(C(C)=O)Cc4c(O)c5c(c(O)c43)C(=O)c3c(OC)cccc3C5=O)O[C@@H](C)[C@H]2O)cc1)C(C)C)C(=O)N1CCC[C@H]1C(=O)NCC(N)=O [compound 10]	release of free Dau and the formation of several peptide fragments could be confirmed	better solubility	13.7 ± 1.87 nM	11200 ± 380 nM	85600 ± 24300 nM	16.1 ± 2.03 nM	–	–	–	–
CCCC(=O)NCCCC[C@H](NC(=O)[C@H]1Cc2ccccc2CN1C(=O)[C@@H]1CCC(=O)N1)C(=O)N[C@@H](Cc1c[nH]cn1)C(=O)N[C@@H](CC(=O)O)C(=O)N[C@@H](Cc1c[nH]c2ccccc12)C(=O)N[C@@H](CCCCNC(=O)CCCC(=O)N[C@H]1C[C@H](O[C@H]2C[C@](O)(C(C)=O)Cc3c(O)c4c(c(O)c32)C(=O)c2c(OC)cccc2C4=O)O[C@@H](C)[C@H]1O)C(=O)N1CCC[C@H]1C(=O)NCC(N)=O [compound 24]	free Dau could not be detected	–	42.7 ± 7.04 nM	48140 ± 470 nM	> 100000 nM	36.3 ± 3.17 nM	confirming the release	–	–	–
CCCC(=O)NCCCC[C@H](NC(=O)[C@H]1Cc2ccccc2CN1C(=O)[C@@H]1CCC(=O)N1)C(=O)N[C@@H](Cc1c[nH]cn1)C(=O)N[C@@H](CC(=O)O)C(=O)N[C@@H](Cc1c[nH]c2ccccc12)C(=O)N[C@@H](CCCCNC(=O)CCCC(=O)N(C)CCN(C)C(=O)O[C@@H](C(=O)O[C@H]1C[C@@]2(O)[C@@H](OC(=O)c3ccccc3)[C@@H]3[C@]4(OC(C)=O)CO[C@@H]4C[C@H](O)[C@@]3(C)C(=O)[C@H](OC(C)=O)C(=C1C)C2(C)C)[C@@H](NC(=O)c1ccccc1)c1ccccc1)C(=O)N1CCC[C@H]1C(=O)NCC(N)=O [compound 26]	–	–	22.2 ± 0.96 nM	> 100000 nM	> 100000 nM	23.4 ± 1.67 nM	–	could not be detected	–	–
CCCC(=O)NCCCC[C@H](NC(=O)[C@H](Cc1c[nH]c2ccccc12)NC(=O)[C@H](Cc1c[nH]cn1)NC(=O)[C@@H]1CCC(=O)N1)C(=O)N[C@@H](Cc1c[nH]cn1)C(=O)N[C@@H](CC(=O)O)C(=O)N[C@@H](Cc1c[nH]c2ccccc12)C(=O)N[C@@H](CCCCNC(=O)CCCC(=O)N[C@H](C(=O)N[C@@H](C)C(=O)Nc1ccc(COC(=O)N(C)CCN(C)C(=O)O[C@@H](C(=O)O[C@H]2C[C@@]3(O)[C@@H](OC(=O)c4ccccc4)[C@@H]4[C@]5(OC(C)=O)CO[C@@H]5C[C@H](O)[C@@]4(C)C(=O)[C@H](OC(C)=O)C(=C2C)C3(C)C)[C@@H](NC(=O)c2ccccc2)c2ccccc2)cc1)C(C)C)C(=O)N1CCC[C@H]1C(=O)NCC(N)=O [compound 16]	–	–	8.47 ± 1.06 nM	660 ± 180 nM	4890 ± 1080 nM	9.86 ± 0.82 nM	–	–	could be already detected	could not be detected
